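1) Cells in 96-well plates. 2) Compound, 48 h, 5 concentrations. 3) Linear interpolation between surrounding doses. 4) Unreached endpoint = highest concentration. At the GI50, growth is halved. TGI denotes the concentration required for complete inhibition of growth.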
Experiments:
Assay in all cases: inhibition of tumour cell growth, NCI panel, 48 h
[1] = system: HS 578T breast
[2] = system: MDA-MB-435
[3] = system: DLD-1 colon
[4] = system: DMS 273 small cell lung
[5] = system: M19-MEL melanoma
[6] = system: RXF-631 renal
[7] = system: XF 498 CNS
[8] = system: MDA-N
[9] = system: KM20L2 colon

Row | Compound | GI50 [1] | TGI [1] | GI50 [2] | TGI [2] | other results
1 | CCCCCCCCCCCCCCCCN1CC2CCCCC2C1 (stereo not drawn) | 11.8 µM | 30.5 µM | 8.57 µM | 24.3 µM | –
2 | CN(C)CCNc1c2c(c(NCCN(C)C)c3[nH]ccc13)C(=O)c1ccccc1C2=O | 2.74 µM | 9.26 µM | 1.54 µM | 5.14 µM | –
3 | COc1ccc(-c2c3c(N)nc(-c4ccncc4)nc3nc3c2c(C)nn3-c2ccccc2)cc1 | 16.5 µM | > 100 µM | 5.29 µM | > 100 µM | –
4 | O=C1/C(=C\c2c[nH]c3ccccc23)c2ccccc2N1c1c(Cl)cccc1Cl | – | – | 1.77 µM | 3.57 µM | –
5 | Cc1cc(N(CCC#N)CCC#N)ccc1N=Nc1cccc(C(=O)O)c1 | – | – | – | – | TGI [3]: > 100 µM; TGI [4]: > 100 µM; TGI [5]: > 100 µM; TGI [6]: > 100 µM; TGI [7]: > 100 µM
6 | COc1ccc(-c2n/c(=C\c3c(O)[nH]c4ccc(OC)cc34)cc3c2=Nc2ccccc2-3)cc1 | 1.94 µM | 4.82 µM | – | – | –
7 | COc1ccc(-c2nc3sc4c(c3c(=O)[nH]2)CCCCCC4)cc1 | 1.78 µM | > 33.2 µM | 0.107 µM | 0.838 µM | –
8 | CCCC(C)c1cc(Cc2cc(Cl)cc(Cl)c2O)c(O)c(Cc2cc(Cl)cc(Cl)c2O)c1 (stereo not drawn) | 0.836 µM | 8.32 µM | 2.31 µM | 10.3 µM | –
9 | COc1ccc(-c2csc(N(C(=O)N3CCN(c4cc5c(cc4F)c(=O)c(C(=O)O)cn5C4CC4)CC3)c3ccccc3)n2)cc1 | 1.48 µM | > 100 µM | 3.51 µM | > 100 µM | –
10 | CCCCCCCCCCC(C(=O)O)C1(C(=O)O)CCC(=O)O1 (stereo not drawn) | – | > 100 µM | – | > 100 µM | TGI [8]: > 100 µM
11 | CN1CCC(n2cnc(-c3ccc(F)cc3)c2-c2ccnc(NCCO)n2)CC1 | > 25 µM | > 25 µM | 11.5 µM | > 25 µM | –
12 | COc1cc(/C=C/c2cc(O)c3cc(C(C)=O)c(=O)oc3c2)cc2c1O[C@]1(C)CC[C@@H](O)C(C)(C)[C@H]1C2 | – | – | > 20.1 µM | > 45.7 µM | –
13 | CCCC(=O)OC1C(C(O)CO)OC2OC(C)(C)OC21 (stereo not drawn) | – | > 100 µM | – | > 100 µM | TGI [3]: > 100 µM; TGI [4]: > 100 µM; TGI [9]: > 100 µM; TGI [5]: > 100 µM; TGI [8]: > 100 µM; TGI [7]: > 100 µM
14 | Cc1ccccc1[P+](Cc1ccccc1)(c1ccccc1)c1ccccc1 | 1.83 µM | 11.7 µM | 0.601 µM | 3.71 µM | –
15 | CC1=C(C)C(=O)c2c(cc3ccccn23)C1=O | – | – | – | – | TGI [4]: 32.2 µM; TGI [5]: 4.42 µM; TGI [6]: 21.7 µM
16 | CCOc1ccc(NC(=O)C(=O)CC(=O)C2=C(C)Nc3ccccc3S2)cc1 | – | – | – | – | TGI [3]: > 50 µM; TGI [9]: > 50 µM; TGI [5]: > 50 µM; TGI [6]: > 50 µM; TGI [7]: > 50 µM
17 | O=C(NCCO)Nc1ccc(-c2nc(N3CCOCC3)c3cccn3n2)cc1 | 0.0889 µM | 0.836 µM | 0.188 µM | > 28.1 µM | –
18 | COc1cc(OC(C)=O)cc2c(OC(C)=O)ccc(OC(C)=O)c12 | – | – | – | – | TGI [9]: > 100 µM

Row | Compound | GI50 [1] | TGI [1] | GI50 [2] | TGI [2] | other results
19 | COc1cccc(-n2ncc3c(N/N=C/c4ccc(C(=O)NCCN(C)C)cc4)ncnc32)c1 | 0.57 µM | 6 µM | 1.93 µM | 5.81 µM | –
20 | C1C[OH+]CC[OH+]CCNCC[OH+]CC[OH+]CCN1.N.[Cl-].[Pt+4] | – | – | – | – | GI50 [3]: 20.2 µM; TGI [3]: > 100 µM; GI50 [4]: 2.87 µM; TGI [4]: 15.7 µM; GI50 [9]: 30.3 µM; TGI [9]: > 100 µM
21 | COc1cc2c(c(OC)c1)C1c3ccccc3NC(=O)N1CC2 (stereo not drawn) | 6.3 µM | > 100 µM | – | – | –
22 | Cc1ccc(N=Nc2c(O)c(C(=O)O)cc3ccccc23)cc1C | – | > 100 µM | – | > 100 µM | –
23 | COC(C(=O)[O][Ge]([CH3])([CH3])[CH3])c1ccccc1 (stereo not drawn) | – | – | – | – | GI50 [3]: > 100 µM; TGI [3]: > 100 µM; GI50 [9]: > 100 µM; TGI [9]: > 100 µM; GI50 [5]: > 100 µM; TGI [5]: > 100 µM; GI50 [6]: > 100 µM; TGI [6]: > 100 µM
24 | OC(c1cc(-c2ccccc2)nc2ccc(Cl)cc12)C1CCCCN1 (stereo not drawn) | 3.37 µM | 11.7 µM | 1.73 µM | 3.29 µM | –
25 | O=c1cc(-c2ccccc2)[nH]c2ccccc12 | 0.458 µM | > 23.2 µM | – | – | –
26 | Cc1ccc(NC(=O)C(=O)C(C#N)c2ccccc2C)cc1C (stereo not drawn) | – | – | – | – | TGI [3]: > 100 µM; TGI [4]: > 100 µM; TGI [9]: > 100 µM; TGI [7]: > 100 µM
27 | Oc1cccc2ccc(N/N=C/c3cc(CN4CCCCC4)c(O)c4ncccc34)nc12 | 0.147 µM | 29.4 µM | 0.0444 µM | 1.73 µM | –
28 | CCc1nccc2c1nc(-c1nonc1N)n2CC | > 19.7 µM | > 25 µM | > 25 µM | > 25 µM | –
29 | COc1ccc(OC)c(NC(=O)C2=C(C)NC(C)=C(C(=O)Nc3cc(OC)ccc3OC)C2c2ccccc2)c1 | – | – | – | – | TGI [3]: > 100 µM; TGI [4]: > 100 µM; TGI [9]: > 100 µM; TGI [5]: > 100 µM
30 | CN(C)C(=O)OC(Cn1cncn1)c1ccc(Cl)cc1Cl (stereo not drawn) | – | – | – | – | TGI [3]: > 100 µM; TGI [4]: > 100 µM; TGI [9]: > 100 µM; TGI [5]: > 100 µM
31 | O=C1CC(c2ccc(O)cc2)C2(O1)C(=O)OC(C(O)CO)C2O (stereo not drawn) | – | > 100 µM | – | > 100 µM | –
32 | CCCCCCCCN=C(N)c1ccc(N2CCN(c3ccc(C(N)=NCCCCCCCC)cc3)CC2)cc1 | – | – | 1.25 µM | 3.23 µM | –
33 | COc1ccc2sc3c(NCCCN(C)C)nc4ccccc4c3c(=O)c2c1 | 1.49 µM | 3.26 µM | 1.59 µM | 2.98 µM | –
34 | CC[C@@H](C(=O)O)C1CC[C@H](C)C([C@@H](C)[C@H](O)[C@H](C)C(=O)[C@H](CC)C2O[C@]3(C=C[C@@H](O)[C@]4(CC[C@@](C)(C5CC[C@](O)(CC)[C@H](C)O5)O4)O3)[C@H](C)C[C@@H]2C)O1 (stereo partly drawn) | 0.0767 µM | 12.4 µM | 1.04 µM | 2.77 µM | –
35 | COc1ccc(/C(C#N)=C/c2ccccc2OC)cc1 | 14.3 µM | > 100 µM | 1.95 µM | 5.72 µM | –
36 | COc1ccc2c(c1)/C(=C\c1c(C)nc3sccn13)C(=O)N2 | 0.224 µM | 15.2 µM | – | – | –

From PubChem BioAssay (NCI)
